# Test results published in PubChem BioAssay AID1259407 (Chemical Carcinogenesis Research Information System (CCRIS), 2018).
# Activity calls are given as the source filed them. The rule behind the calls is not given here.
# System: CCRIS mutagenicity, Ames/micronucleus/aberration tests
# Experiment: CCRIS mutagenicity studies
# [1] = Test System: AMES SALMONELLA TYPHIMURIUM, Strain/Indicator: TA98, Metabolic Activation: NONE, Method: PREINCUBATION
smiles,measurement,setting,value
O=[N+]([O-])c1ccc2c(c1)Cc1cc([N+](=O)[O-])ccc1-2,mutagenic call,"Test System: AMES SALMONELLA TYPHIMURIUM, Strain/Indicator: TA98(1,8-DNP6), Metabolic Activation: NONE, Method: STANDARD PLATE",active; positive
same,mutagenic call,"Test System: AMES SALMONELLA TYPHIMURIUM, Strain/Indicator: TA98(NR), Metabolic Activation: NONE, Method: STANDARD PLATE",active; positive
same,mutagenic call,[1],active; positive
same,mutagenic call,"Test System: AMES SALMONELLA TYPHIMURIUM, Strain/Indicator: TA98, Metabolic Activation: NONE, Method: STANDARD PLATE",active; positive
same,mutagenic call,"Test System: AMES SALMONELLA TYPHIMURIUM, Strain/Indicator: TA98, Metabolic Activation: RAT, LIVER, S-9, AROCLOR 1254, Method: STANDARD PLATE",active; positive
same,mutagenic call,"Test System: AMES SALMONELLA TYPHIMURIUM, Strain/Indicator: TA98, Metabolic Activation: RAT, LIVER, S-9, PCB (10%), Method: PREINCUBATION",active; positive
same,mutagenic call,"Test System: AMES SALMONELLA TYPHIMURIUM, Strain/Indicator: TA100, Metabolic Activation: NONE, Method: STANDARD PLATE",active; positive
same,mutagenic call,"Test System: AMES SALMONELLA TYPHIMURIUM, Strain/Indicator: TA100, Metabolic Activation: RAT, LIVER, S-9, AROCLOR 1254, Method: STANDARD PLATE",active; positive
O=S(=O)(C(Cl)(Cl)Cl)C(Cl)(Cl)Cl,mutagenic call,"Test System: MOUSE LYMPHOMA, Strain/Indicator: L5178Y (TK+/TK-), Metabolic Activation: NONE, Method: SUSPENSION/PLATE",inactive; negative. reevaluation of results: positive
same,mutagenic call,"Test System: MOUSE LYMPHOMA, Strain/Indicator: L5178Y (TK+/TK-), Metabolic Activation: RAT, LIVER, S-9, AROCLOR 1254, Method: SUSPENSION/PLATE",inactive; negative. reevaluation of results: negative
CC(=O)Nc1cccc(N)c1,mutagenic call,"Test System: AMES SALMONELLA TYPHIMURIUM, Strain/Indicator: TA97, Metabolic Activation: HAMSTER, LIVER, S-9, AROCLOR 1254 (10%), Method: PREINCUBATION",active; positive
same,mutagenic call,"Test System: AMES SALMONELLA TYPHIMURIUM, Strain/Indicator: TA97, Metabolic Activation: NONE, Method: PREINCUBATION",inactive; negative
same,mutagenic call,"Test System: AMES SALMONELLA TYPHIMURIUM, Strain/Indicator: TA97, Metabolic Activation: RAT, LIVER, S-9, AROCLOR 1254 (10%), Method: PREINCUBATION",active; positive
same,mutagenic call,"Test System: AMES SALMONELLA TYPHIMURIUM, Strain/Indicator: TA98, Metabolic Activation: HAMSTER, LIVER, S-9, AROCLOR 1254 (10%), Method: PREINCUBATION",active; positive
same,mutagenic call,[1],inactive; negative
same,mutagenic call,"Test System: AMES SALMONELLA TYPHIMURIUM, Strain/Indicator: TA98, Metabolic Activation: RAT, LIVER, S-9, AROCLOR 1254 (10%), Method: PREINCUBATION",active; positive
same,mutagenic call,"Test System: AMES SALMONELLA TYPHIMURIUM, Strain/Indicator: TA100, Metabolic Activation: HAMSTER, LIVER, S-9, AROCLOR 1254 (10%), Method: PREINCUBATION",active; positive
same,mutagenic call,"Test System: AMES SALMONELLA TYPHIMURIUM, Strain/Indicator: TA100, Metabolic Activation: NONE, Method: PREINCUBATION",inactive; negative
same,mutagenic call,"Test System: AMES SALMONELLA TYPHIMURIUM, Strain/Indicator: TA100, Metabolic Activation: RAT, LIVER, S-9, AROCLOR 1254 (10%), Method: PREINCUBATION",inactive; negative
same,mutagenic call,"Test System: AMES SALMONELLA TYPHIMURIUM, Strain/Indicator: TA1535, Metabolic Activation: HAMSTER, LIVER, S-9, AROCLOR 1254 (10%), Method: PREINCUBATION",inactive; negative
same,mutagenic call,"Test System: AMES SALMONELLA TYPHIMURIUM, Strain/Indicator: TA1535, Metabolic Activation: NONE, Method: PREINCUBATION",inactive; negative
same,mutagenic call,"Test System: AMES SALMONELLA TYPHIMURIUM, Strain/Indicator: TA1535, Metabolic Activation: RAT, LIVER, S-9, AROCLOR 1254 (10%), Method: PREINCUBATION",inactive; negative
